Test systems include HCT-15 colon; LXFL 529 NSCLC; UACC-257 melanoma; K-562 leukemia; A498 renal; SNB-78 CNS; OVCAR-8 ovarian; SK-MEL-28 melanoma; UACC-62 melanoma.
What all share (test): growth of human tumour cells (NCI), 48 h

SMILES strings stand for the structures.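 In this assay, cells in 96-well plates receive the compound at five concentrations for 48 hours. Endpoints are linearly interpolated between the surrounding concentrations. Abbreviation: GI50, concentration required for 50% inhibition of growth. TGI denotes the concentration required for complete inhibition of growth.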

Regarding `COc1ccc2c3c([nH]c2c1[N+](=O)[O-])C(C)N(Cc1ccccc1)CC3` (stereo unspecified), the TGI was more than 100 µM in the test on HCT-15 colon; more than 100 µM in the test with LXFL 529 NSCLC; 14.5 µM in the test on UACC-257 melanoma; more than 100 µM in the test on K-562 leukemia; 7.71 µM in the test on A498 renal; more than 100 µM in the test with SNB-78 CNS. Further, the results for the TGI in the test on OVCAR-8 ovarian, with SK-MEL-28 melanoma and in the test with UACC-62 melanoma were more than 100 µM, 59.5 µM and more than 100 µM, respectively.
As to `COC(=O)C1Cc2c(n(C)c3ccccc23)C(CCC(=O)O)N1Cc1ccccc1` (stereo unspecified), the TGI with HCT-15 colon was more than 100 µM; with LXFL 529 NSCLC, more than 100 µM; in the test with UACC-257 melanoma it was more than 100 µM; with K-562 leukemia, more than 100 µM; with A498 renal it was 76.5 µM; with SNB-78 CNS, more than 100 µM. Further, the TGI with OVCAR-8 ovarian is more than 100 µM; with SK-MEL-28 melanoma, 58.2 µM; with UACC-62 melanoma, 77.1 µM.
`COC(=O)N/N=C(\C)c1c(O)cc(C)oc1=O`: the TGI in the test with HCT-15 colon was more than 100 µM; in the test on LXFL 529 NSCLC it was 45.5 µM; in the test on UACC-257 melanoma it was more than 100 µM; in the test on K-562 leukemia it was 97.7 µM; with A498 renal it was more than 100 µM; with SNB-78 CNS, more than 100 µM. The TGI in the test on OVCAR-8 ovarian, with SK-MEL-28 melanoma and in the test with UACC-62 melanoma was more than 100 µM throughout.
As to `CC(=O)[O-].Cn1ccnc1CNCc1nccn1C.[Cu+2].[O-][Cl+3]([O-])([O-])[O-]`, the GI50 in the test on LXFL 529 NSCLC is more than 100 µM; with K-562 leukemia it was more than 100 µM; in the test on SNB-78 CNS, more than 100 µM; in the test with OVCAR-8 ovarian, more than 100 µM; in the test with SK-MEL-28 melanoma, more than 100 µM; in the test with UACC-62 melanoma it was 26.9 µM. In addition, the TGI in the test on LXFL 529 NSCLC, in the test with K-562 leukemia, in the test with SNB-78 CNS, with OVCAR-8 ovarian, in the test with SK-MEL-28 melanoma and in the test on UACC-62 melanoma was more than 100 µM in each case.
Consider `N/C(=N\N=C\c1ccc(C(F)(F)F)cc1)NO`, for which the TGI in the test on LXFL 529 NSCLC was more than 100 µM; in the test on UACC-257 melanoma, more than 100 µM; in the test on K-562 leukemia, more than 100 µM; with A498 renal, more than 100 µM; in the test on SNB-78 CNS it was more than 100 µM; with OVCAR-8 ovarian it was 41.2 µM. Further, the TGI with SK-MEL-28 melanoma was more than 100 µM; in the test with UACC-62 melanoma, 21.7 µM.
On to `O=[N+]([O-])C=C(c1ccc(Cl)cc1)c1ccc(Cl)cc1`, for which the TGI is 38 µM in the test on HCT-15 colon; 28.5 µM with LXFL 529 NSCLC; 36.9 µM with UACC-257 melanoma; 50.2 µM in the test on K-562 leukemia; 36.2 µM with A498 renal; 44 µM in the test with SNB-78 CNS. The TGI came to 36.3 µM in the test on OVCAR-8 ovarian and 31 µM in the test with SK-MEL-28 melanoma.
Turning to `CCOC(=O)C(=O)CC1=Nc2ccccc2SC(c2cccc(C)c2)C1` (stereo unspecified), the TGI with HCT-15 colon was found to be 35.7 µM; in the test on LXFL 529 NSCLC, 31.9 µM; with UACC-257 melanoma, 33.2 µM; in the test with K-562 leukemia, 57.6 µM; with A498 renal, 33 µM; in the test on SNB-78 CNS, 32.4 µM. In addition, the values for the TGI in the test with OVCAR-8 ovarian, with SK-MEL-28 melanoma and in the test with UACC-62 melanoma were 25.1 µM, 29.3 µM and 31.9 µM, respectively.
Consider `CC1/C(=N\O)CC(c2ccccc2)N(C)C1c1ccccc1` (stereo unspecified), for which the TGI with HCT-15 colon, in the test with LXFL 529 NSCLC, with UACC-257 melanoma, with K-562 leukemia, with A498 renal and with SNB-78 CNS was more than 100 µM in each case. For the same compound, the TGI with OVCAR-8 ovarian, in the test on SK-MEL-28 melanoma and in the test on UACC-62 melanoma was more than 100 µM each time.
For `CCOP(=O)(OCC)C1CCCOC1=O` (stereo unspecified), the TGI with HCT-15 colon, in the test with LXFL 529 NSCLC, in the test with UACC-257 melanoma, with K-562 leukemia, in the test with A498 renal and in the test on SNB-78 CNS was more than 100 µM in each case. The TGI with OVCAR-8 ovarian, in the test with SK-MEL-28 melanoma and in the test on UACC-62 melanoma was more than 100 µM each time.
As to `CC1=C(/C=C/C(C)=C/C2CC(N(C)C)=CC(=O)O2)C(C)(C)CCC1` (stereo unspecified), the TGI in the test on LXFL 529 NSCLC came to 24 µM; with UACC-257 melanoma it was 24.9 µM; in the test on K-562 leukemia, 19.9 µM; in the test on A498 renal it was 29.2 µM; in the test with SNB-78 CNS, 41.9 µM; in the test with OVCAR-8 ovarian, 32.3 µM. In addition, the TGI in the test with SK-MEL-28 melanoma was determined as 30.9 µM; in the test on UACC-62 melanoma, 27 µM.
On to `CC1=C(C(=O)Nc2ccccc2)C(c2cccc3ccccc23)C(C(=O)Nc2ccccc2)=C(C)N1`, for which the TGI with HCT-15 colon worked out at 30.5 µM; in the test with LXFL 529 NSCLC, 34.4 µM; with UACC-257 melanoma it was 39.2 µM; with K-562 leukemia it was 72.5 µM; in the test on A498 renal, 48.5 µM; in the test with SNB-78 CNS, 94.3 µM. Besides, the TGI with OVCAR-8 ovarian was found to be 35.8 µM; in the test with SK-MEL-28 melanoma it was 34.7 µM; with UACC-62 melanoma it was 27.8 µM.
On to `CN(C)C(=N/O)/C(=N\O)N(C)C`, for which the TGI in the test on HCT-15 colon, in the test on LXFL 529 NSCLC, with UACC-257 melanoma, in the test on K-562 leukemia, in the test with A498 renal and in the test on SNB-78 CNS was more than 100 µM each time. Moreover, the TGI with OVCAR-8 ovarian, in the test with SK-MEL-28 melanoma and in the test with UACC-62 melanoma was more than 100 µM each time.
As for `O=C(/C=C/c1ccccc1F)c1ccc(Cl)c(Cl)c1`, the TGI in the test with HCT-15 colon is more than 87 µM; with LXFL 529 NSCLC, 35.6 µM; with UACC-257 melanoma, more than 100 µM; with K-562 leukemia, 48.4 µM; in the test on A498 renal, more than 59.3 µM; in the test on SNB-78 CNS, more than 100 µM. The TGI with OVCAR-8 ovarian, in the test on SK-MEL-28 melanoma and with UACC-62 melanoma was more than 100 µM in each case.
`Cc1cccc(C)c1NC(=O)C1=NC(=S)NC(c2ccccc2)C1c1nc2ccccc2s1` (stereo unspecified): the TGI in the test on LXFL 529 NSCLC, in the test with UACC-257 melanoma, with K-562 leukemia, in the test with A498 renal, in the test on SNB-78 CNS and with OVCAR-8 ovarian was more than 100 µM in each case. For the same compound, the TGI in the test with SK-MEL-28 melanoma and with UACC-62 melanoma was more than 100 µM throughout.
With `O=C(CC1OC(O)C(Cl)=C1Cl)c1cccnc1` (stereo unspecified), the TGI in the test on HCT-15 colon was more than 56.8 µM; with LXFL 529 NSCLC, more than 100 µM; with UACC-257 melanoma, more than 100 µM; with K-562 leukemia it was more than 100 µM; with A498 renal, more than 100 µM; in the test on SNB-78 CNS it was more than 100 µM. Moreover, the TGI in the test on OVCAR-8 ovarian, with SK-MEL-28 melanoma and in the test with UACC-62 melanoma was more than 100 µM each time.
On to `CN(C)CCNC(=O)c1cccc2cc3c(Cl)cccc3nc12`, for which the TGI with HCT-15 colon is 6.37 µM; in the test with UACC-257 melanoma, 3.99 µM; in the test with K-562 leukemia it was 4.04 µM; in the test with A498 renal, 3.21 µM; in the test on SNB-78 CNS, 8.26 µM; in the test with OVCAR-8 ovarian it was more than 20.3 µM. Further, the TGI with SK-MEL-28 melanoma amounted to 5.4 µM; in the test on UACC-62 melanoma, 3.82 µM.
For `C[CH2][Ge]([CH2]C)([CH2]C)[O]C(=O)C(OC(C)=O)c1ccccc1` (stereo unspecified), the GI50 in the test on HCT-15 colon, with LXFL 529 NSCLC, in the test with UACC-257 melanoma, with K-562 leukemia, in the test with A498 renal and in the test with SNB-78 CNS was more than 100 µM each time. Also, the GI50 with OVCAR-8 ovarian, with SK-MEL-28 melanoma and with UACC-62 melanoma was more than 100 µM throughout. For the same compound, the TGI in the test on HCT-15 colon, with LXFL 529 NSCLC, in the test on UACC-257 melanoma, in the test with K-562 leukemia, in the test on A498 renal and in the test on SNB-78 CNS was more than 100 µM in each case. Also, the TGI with OVCAR-8 ovarian, in the test on SK-MEL-28 melanoma and with UACC-62 melanoma was more than 100 µM in each case.
With `O=C1C(c2ccc(Br)cc2)=[N+]([O-])c2ccccc21`, the TGI worked out at 23.7 µM with HCT-15 colon; 18.8 µM with LXFL 529 NSCLC; 24.7 µM with UACC-257 melanoma; 33.5 µM in the test on K-562 leukemia; 56.1 µM in the test with A498 renal; 25.1 µM with OVCAR-8 ovarian. The TGI amounted to 35.2 µM with SK-MEL-28 melanoma and 29.7 µM in the test on UACC-62 melanoma.
Regarding `c1ccc(C2OC3(CCC[C@H]4C[C@H]43)O[C@H]2c2ccccc2)cc1` (stereo partly specified), the TGI in the test with HCT-15 colon was more than 100 µM; with UACC-257 melanoma it was 77.7 µM; in the test on K-562 leukemia, more than 100 µM; in the test on A498 renal it was more than 100 µM; in the test with SNB-78 CNS, more than 100 µM; in the test on OVCAR-8 ovarian, more than 100 µM. The same compound came in with a TGI with UACC-62 melanoma of more than 100 µM.
For `O=C1C=CC=C/C1=C1/SC(c2ccccc2)=C(O)N1c1ccccc1`, the TGI in the test on HCT-15 colon, in the test with LXFL 529 NSCLC, with UACC-257 melanoma, with SNB-78 CNS, in the test with OVCAR-8 ovarian and in the test on SK-MEL-28 melanoma was more than 100 µM throughout. Also, in the test with UACC-62 melanoma, the TGI was more than 100 µM.
For the compound `Cc1cccc(C2SCc3nc4ccccc4n32)c1` (stereo unspecified), the TGI is 54.5 µM with HCT-15 colon; more than 100 µM in the test on LXFL 529 NSCLC; more than 100 µM in the test on K-562 leukemia; 99.4 µM in the test on SNB-78 CNS; more than 100 µM in the test with OVCAR-8 ovarian; 65.7 µM in the test with SK-MEL-28 melanoma. The compound further displayed a TGI in the test on UACC-62 melanoma of more than 100 µM.
For `CC(=O)c1c2c(cc3c1CC1(C3)Cc3cc4c(c(C(C)=O)c3C1)CCC4)CCC2`, the TGI in the test with LXFL 529 NSCLC, in the test with UACC-257 melanoma, in the test with K-562 leukemia, with SNB-78 CNS, with OVCAR-8 ovarian and with SK-MEL-28 melanoma was more than 100 µM each time. In addition, the TGI in the test on UACC-62 melanoma is more than 100 µM.

For the origin of these results see PubChem BioAssay (NCI).
